Test results reported in publication PMC13110364, “Design, Synthesis, and Biological Evaluation of Novel Triazine‐Based Dual Histone Deacetylase/phosphatidylinositol 3‐kinase Inhibitors for Breast Cancer Therapy” (Chemmedchem, 2026).
Several values for one entry are separate records, joined by “and”; a condition that tells them apart may be missing. Equal entries are not always repeated.

Legend:
[1] = target: HDAC6 (Homo sapiens, UniProt Q9UBN7); experiment: HDAC6 inhibition, 10-dose IC50 (Reaction Biology Corporation); assay type: biochemical; conditions: 10‐dose IC50 mode, threefold serial dilutions starting at 1 μM
[2] = target: HDAC10 (Homo sapiens, UniProt Q969S8); experiment: Selectivity profile, single dose 0.5 µM, HDAC10; assay type: biochemical; conditions: remaining enzyme activity; single‐dose duplicate mode at 0.5 μM; read-out: Enzyme % activity (relative to DMSO controls) at 0.5 µM, HDAC10
Procedure: (§1) The inhibitory profiles of 5b and 5f were evaluated against selected HDAC isoforms (HDAC1, HDAC3, HDAC4, HDAC8, and HDAC10) and PI3K isoforms (PI3Kδ, PI3Kγ, and PI3Kβ) at a fixed concentration of 0.5 µM (Table 3). […] While we explored the phenyl ring in the linker region to achieve selectivity for the HDAC6 isoform, we still observed HDAC class I inhibition. […] It is important to highlight that PI3Kδ is mainly expressed in hematopoietic system and plays roles in leukocyte signaling, T‐cell activation, and immune cell trafficking. FDA‐approved drug idelalisib is a selective PI3Kδ inhibitor in B‐cell malignancies; however, this drug is also related to disruption of the immune system, which can lead to immune manifestations, such as infections. In addition, while isoform‐selective PI3K inhibitors are well tolerated, pan‐inhibition of PI3K is less expected that compensatory mechanisms by the action of other PI3Ks can take place. Thus, a more balanced profile of PI3K inhibition can lead to an overall lack of toxicity of PI3K inhibitors.

[3] = target: PI3Kβ (Homo sapiens, UniProt P42338); experiment: Selectivity profile, single dose 0.5 µM, PI3Kβ; assay type: biochemical; conditions: remaining enzyme activity; single‐dose duplicate mode at 0.5 μM; read-out: Enzyme % activity (relative to DMSO controls) at 0.5 µM, PI3Kβ
Procedure: as §1

[4] = target: PI3Kδ (Homo sapiens, UniProt O00329); experiment: Selectivity profile, single dose 0.5 µM, PI3Kδ; assay type: biochemical; conditions: remaining enzyme activity; single‐dose duplicate mode at 0.5 μM; read-out: Enzyme % activity (relative to DMSO controls) at 0.5 µM, PI3Kδ
Procedure: as §1

[5] = test system: HDAC6 (acetylated α‐tubulin); experiment: Western blot, acetylated α-tubulin in treated cells; assay type: cell-based; conditions: LY2, JIMT1, MDA‐MB‐231 cells, 24 h; seen at 3 µM, further increasing at 10 µM
Procedure: (§2) FIGURE 4 Cell‐based evaluation of compounds 5a– 5f. Dose‐dependent effects of compound treatment (5a‐5f) on breast cancer cell viability across JIMT1 (A), MDA‐MB‐231 (B), and LY2 (C). Cell‐based evaluation of HDAC and PI3K inhibition by compounds 5b and 5f by Western blot. JIMT1 cells were treated for 24 h with compounds 5b (D) and 5f (E) at the concentrations of 1, 3, and 10 µM or with vehicle control (0.1% DMSO). Protein expression levels were analyzed by western blot using antibodies against acetylated α‐tubulin, acetyl H3 (H3K9Ac and H3K14Ac), phospho‐AKT (p‐AKT), and total AKT. GAPDH served as a loading control.
(§3) To investigate if 5b and 5f were acting as multitarget inhibitors, we evaluated the modulation of HDAC6 and PI3K signaling pathways by western blot analysis (Figure 4D,E). […]
(§4) Total protein samples were extracted from treated cells using a lysis buffer containing 0.1% IGEPAL CA‐630 (I8896, Merck), 0.5% deoxycholic acid (D2510, Merck), and 0.1% SDS (L3771, Merck), freshly supplemented with protease and phosphatase inhibitor cocktail (78442, Thermo Fisher Scientific). Protein concentrations were quantified using the Pierce BCA Protein Assay Kit (23227, Thermo Fisher Scientific) according to the manufacturer's instructions. […] Chemiluminescence signals were detected using the Amersham Imager 680 Imaging System. […]

[6] = test system: PI3K pathway (phosphorylation of AKT); experiment: Western blot, phospho-AKT in treated cells; assay type: cell-based; conditions: LY2, JIMT1, MDA‐MB‐231 cells, 24 h; seen at 10 µM
Procedure: as §2, §3, §4

HDAC6, sequence (Q9UBN7 whole entry): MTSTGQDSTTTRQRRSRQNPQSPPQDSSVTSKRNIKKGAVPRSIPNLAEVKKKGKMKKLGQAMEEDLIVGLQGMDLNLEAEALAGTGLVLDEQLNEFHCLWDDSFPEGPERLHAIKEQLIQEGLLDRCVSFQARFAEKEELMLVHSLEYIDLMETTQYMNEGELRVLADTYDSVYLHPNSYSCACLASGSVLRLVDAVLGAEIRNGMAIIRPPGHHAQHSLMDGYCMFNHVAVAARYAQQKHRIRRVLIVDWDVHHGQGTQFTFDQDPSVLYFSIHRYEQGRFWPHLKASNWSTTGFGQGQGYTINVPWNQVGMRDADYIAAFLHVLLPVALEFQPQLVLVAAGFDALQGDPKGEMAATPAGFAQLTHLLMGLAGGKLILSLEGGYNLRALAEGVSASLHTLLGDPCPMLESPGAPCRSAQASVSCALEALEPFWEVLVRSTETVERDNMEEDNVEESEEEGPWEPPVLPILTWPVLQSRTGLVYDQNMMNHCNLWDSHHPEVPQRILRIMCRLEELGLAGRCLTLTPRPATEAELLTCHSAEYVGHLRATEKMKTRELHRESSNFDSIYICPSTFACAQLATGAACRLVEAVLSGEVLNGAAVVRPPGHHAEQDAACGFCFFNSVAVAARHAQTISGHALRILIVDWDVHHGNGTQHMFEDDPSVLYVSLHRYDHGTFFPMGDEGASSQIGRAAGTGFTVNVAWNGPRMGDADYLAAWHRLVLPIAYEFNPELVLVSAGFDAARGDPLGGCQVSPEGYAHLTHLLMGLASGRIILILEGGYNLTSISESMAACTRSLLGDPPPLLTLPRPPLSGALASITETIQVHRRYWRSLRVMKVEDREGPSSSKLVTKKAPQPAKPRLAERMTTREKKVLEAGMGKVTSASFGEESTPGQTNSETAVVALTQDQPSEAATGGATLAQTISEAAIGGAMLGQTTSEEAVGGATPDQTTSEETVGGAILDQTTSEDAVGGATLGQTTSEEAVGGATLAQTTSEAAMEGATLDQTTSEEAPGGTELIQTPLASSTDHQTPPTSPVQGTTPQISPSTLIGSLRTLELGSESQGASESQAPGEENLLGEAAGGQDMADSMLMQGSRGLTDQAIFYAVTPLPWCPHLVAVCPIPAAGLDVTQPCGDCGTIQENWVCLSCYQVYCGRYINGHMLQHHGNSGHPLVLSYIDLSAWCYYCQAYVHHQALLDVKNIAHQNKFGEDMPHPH
HDAC10, sequence (Q969S8 whole entry, canonical isoform): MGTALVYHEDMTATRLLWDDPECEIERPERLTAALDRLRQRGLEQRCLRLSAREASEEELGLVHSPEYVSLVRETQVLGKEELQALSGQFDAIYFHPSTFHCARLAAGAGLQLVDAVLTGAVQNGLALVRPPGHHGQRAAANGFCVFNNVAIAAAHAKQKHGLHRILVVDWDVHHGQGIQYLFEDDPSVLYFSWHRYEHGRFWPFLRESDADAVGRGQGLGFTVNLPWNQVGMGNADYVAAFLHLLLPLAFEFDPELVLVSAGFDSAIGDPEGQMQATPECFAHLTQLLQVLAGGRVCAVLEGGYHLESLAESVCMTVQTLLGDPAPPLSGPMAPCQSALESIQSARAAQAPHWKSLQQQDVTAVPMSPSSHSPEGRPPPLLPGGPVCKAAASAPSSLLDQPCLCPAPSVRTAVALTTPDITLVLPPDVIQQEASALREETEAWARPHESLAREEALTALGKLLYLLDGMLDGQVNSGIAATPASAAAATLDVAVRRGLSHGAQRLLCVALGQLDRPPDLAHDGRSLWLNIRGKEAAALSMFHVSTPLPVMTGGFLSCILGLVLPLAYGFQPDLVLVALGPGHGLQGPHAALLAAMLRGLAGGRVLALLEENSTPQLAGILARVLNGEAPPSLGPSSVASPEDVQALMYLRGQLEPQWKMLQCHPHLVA
PI3Kβ, sequence (P42338 whole entry): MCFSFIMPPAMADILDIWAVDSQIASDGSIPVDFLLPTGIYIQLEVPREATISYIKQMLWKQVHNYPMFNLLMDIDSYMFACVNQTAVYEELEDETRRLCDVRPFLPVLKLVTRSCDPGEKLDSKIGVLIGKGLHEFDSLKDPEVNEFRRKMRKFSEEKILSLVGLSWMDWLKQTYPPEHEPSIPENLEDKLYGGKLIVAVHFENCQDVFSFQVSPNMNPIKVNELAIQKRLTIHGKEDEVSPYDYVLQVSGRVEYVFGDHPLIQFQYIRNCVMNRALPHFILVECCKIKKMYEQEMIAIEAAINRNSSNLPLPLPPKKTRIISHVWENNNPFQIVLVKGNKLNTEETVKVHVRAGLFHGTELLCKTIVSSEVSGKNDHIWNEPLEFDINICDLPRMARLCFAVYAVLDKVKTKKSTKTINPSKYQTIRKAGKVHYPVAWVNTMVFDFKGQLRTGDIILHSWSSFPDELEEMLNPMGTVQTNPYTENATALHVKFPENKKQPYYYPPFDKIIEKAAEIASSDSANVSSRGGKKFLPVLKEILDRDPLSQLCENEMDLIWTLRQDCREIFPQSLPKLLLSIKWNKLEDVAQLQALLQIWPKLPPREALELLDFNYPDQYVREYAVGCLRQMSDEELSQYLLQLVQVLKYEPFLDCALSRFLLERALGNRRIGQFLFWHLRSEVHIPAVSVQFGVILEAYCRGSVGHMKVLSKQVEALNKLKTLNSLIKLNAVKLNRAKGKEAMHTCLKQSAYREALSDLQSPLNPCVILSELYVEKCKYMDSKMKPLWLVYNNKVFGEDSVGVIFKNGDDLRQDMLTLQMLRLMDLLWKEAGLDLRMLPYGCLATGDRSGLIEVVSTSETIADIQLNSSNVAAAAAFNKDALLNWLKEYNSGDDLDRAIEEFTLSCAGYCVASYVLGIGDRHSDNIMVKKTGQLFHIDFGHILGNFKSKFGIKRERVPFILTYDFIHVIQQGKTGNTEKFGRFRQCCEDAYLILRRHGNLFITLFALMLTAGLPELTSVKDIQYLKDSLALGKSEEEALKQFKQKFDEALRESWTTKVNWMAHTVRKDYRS
PI3Kβ, sequence (P27986 whole entry partner): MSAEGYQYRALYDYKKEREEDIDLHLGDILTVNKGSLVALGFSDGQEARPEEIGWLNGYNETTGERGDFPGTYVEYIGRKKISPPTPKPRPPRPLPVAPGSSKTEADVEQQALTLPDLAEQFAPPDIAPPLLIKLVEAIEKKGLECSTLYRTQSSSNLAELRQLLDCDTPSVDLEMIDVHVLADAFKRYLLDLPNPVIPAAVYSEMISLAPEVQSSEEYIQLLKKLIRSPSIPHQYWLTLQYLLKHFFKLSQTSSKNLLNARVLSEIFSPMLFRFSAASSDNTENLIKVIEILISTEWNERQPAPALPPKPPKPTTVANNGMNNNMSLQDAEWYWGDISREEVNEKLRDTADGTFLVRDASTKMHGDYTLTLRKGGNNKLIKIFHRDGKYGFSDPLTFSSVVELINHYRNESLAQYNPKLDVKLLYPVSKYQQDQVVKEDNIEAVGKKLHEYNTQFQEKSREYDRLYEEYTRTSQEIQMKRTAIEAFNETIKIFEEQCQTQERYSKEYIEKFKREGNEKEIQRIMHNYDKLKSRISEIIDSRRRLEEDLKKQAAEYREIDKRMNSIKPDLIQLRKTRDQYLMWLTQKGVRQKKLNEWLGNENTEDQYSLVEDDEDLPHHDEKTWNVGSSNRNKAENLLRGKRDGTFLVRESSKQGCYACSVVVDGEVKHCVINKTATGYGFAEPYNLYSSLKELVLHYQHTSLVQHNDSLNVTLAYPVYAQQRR
PI3Kδ, sequence (O00329 whole entry): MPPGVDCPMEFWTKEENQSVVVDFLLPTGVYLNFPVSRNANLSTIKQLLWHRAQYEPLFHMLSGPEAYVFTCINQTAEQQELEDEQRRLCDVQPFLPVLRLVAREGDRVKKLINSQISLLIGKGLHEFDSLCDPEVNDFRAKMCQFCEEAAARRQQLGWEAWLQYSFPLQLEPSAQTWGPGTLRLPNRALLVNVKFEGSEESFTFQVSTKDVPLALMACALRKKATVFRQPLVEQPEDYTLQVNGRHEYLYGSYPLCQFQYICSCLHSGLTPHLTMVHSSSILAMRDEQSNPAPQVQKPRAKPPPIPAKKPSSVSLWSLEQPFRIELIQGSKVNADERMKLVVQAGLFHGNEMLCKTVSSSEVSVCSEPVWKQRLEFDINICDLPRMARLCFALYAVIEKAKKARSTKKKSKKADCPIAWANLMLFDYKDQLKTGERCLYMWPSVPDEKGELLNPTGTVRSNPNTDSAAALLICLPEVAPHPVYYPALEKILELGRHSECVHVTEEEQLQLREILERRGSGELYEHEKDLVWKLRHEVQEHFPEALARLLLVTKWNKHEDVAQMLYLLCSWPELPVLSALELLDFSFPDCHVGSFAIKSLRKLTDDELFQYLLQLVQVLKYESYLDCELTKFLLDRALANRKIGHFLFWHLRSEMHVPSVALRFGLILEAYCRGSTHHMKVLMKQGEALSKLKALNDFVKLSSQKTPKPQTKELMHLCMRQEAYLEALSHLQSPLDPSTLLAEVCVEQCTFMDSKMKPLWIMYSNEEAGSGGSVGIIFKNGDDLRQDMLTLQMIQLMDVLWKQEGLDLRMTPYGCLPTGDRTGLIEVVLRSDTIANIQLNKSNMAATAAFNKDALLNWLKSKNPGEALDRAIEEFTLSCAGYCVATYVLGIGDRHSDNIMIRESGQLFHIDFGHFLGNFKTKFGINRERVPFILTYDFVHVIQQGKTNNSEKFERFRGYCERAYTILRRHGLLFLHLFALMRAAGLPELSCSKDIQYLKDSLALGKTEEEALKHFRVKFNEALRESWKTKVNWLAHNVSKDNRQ
PI3Kδ, sequence (P27986 whole entry partner): as the sequence (P27986 whole entry partner) above

IC50 [1]	remaining activity at 0.5 µM [2]	remaining activity at 0.5 µM [3]	remaining activity at 0.5 µM [4]	Structure (SMILES)	Acetylated α‐tubulin level, western blot [5]	Phosphorylation of AKT, western blot [6]
6.02 nM and 6 nM	28.1%	86.9%	59.2%	COc1ccc(-c2nc(NCc3ccc(C(=O)NO)cc3)nc(N3CCOCC3)n2)cn1 [Compound 5f, N‐Hydroxy‐4‐(((4‐(6‐Methoxypyridin‐3‐yl)‐6‐Morpholino‐1,3,5‐Triazin‐2‐yl)Amino)Methyl)Benzamide]	accumulation of acetylated α‐tubulin	decreased phosphorylation of AKT
2.33 nM and 2.3 nM	15.9%	40.1%	8.24%	O=C(NO)c1ccc(CNc2nc(-c3cccc(O)c3)nc(N3CCOCC3)n2)cc1 [Compound 5b, N‐Hydroxy‐4‐(((4‐(3‐Hydroxyphenyl)‐6‐Morpholino‐1,3,5‐Triazin‐2‐yl)Amino)Methyl)Benzamide]	accumulation of acetylated α‐tubulin	decreased phosphorylation of AKT
